Results as given in patent publication US20160271248A1, “CXCR4 UP- AND DOWN-REGULATION FOR TREATMENT OF DISEASES OR DISORDERS” (priority 2013, published 2016).
Read-outs that look alike come from different tables or passages of the source.

Columns and labels:
[1] = test system: layer II/III pyramidal neurons of the prefrontal cortex; test: In vivo dendritic spine analysis (Golgi stain, Neurolucida); parameters: species or system rat
[2] = test system: layer 2/3 pyramidal neurons in the prefrontal cortex; type: cell-based, rat
[3] = test system: Rat cortical neurons; type: cell-based; settings: for effect on CXCL12-induced increase of spine density: AMD3100 100 ng/ml 20 min or PTx 100 ng/ml 18 hrs before CXCL12 (20 nM, 3 hours)
Description: (§1) Rat cortical neurons were cultured in the presence of a glial feeder layer, using the bilaminar cell culture model. Due to the presence of glia this culture system largely preserves the in vivo mechanisms of neuronal growth and differentiation, but also allows for direct studies on neurons, which were separated from glia at the time of analysis. Selected experiments were performed using glia-free neuronal cultures, as noted, using previously described protocols (Sengupta et al., 2009, J. Neurosci. 29:2534-2544). Neurons were transfected at the time of plating by Nucleofection (Amaxa), or after 8 days in culture by lipofectamine (Invitrogen). All experiments were conducted at 21 DIV, unless otherwise noted. HDAC4 and control (scrambled) siRNA were obtained from Ambion (s170677 and 4390843), and FHC/scrambled shRNA from GenScript (custom order; shRNA vector also expressed GFP).
For in vitro experiments, neurons were cultured in the presence of glia for 21 days, then fixed and stained for MAP2 (Millipore, 1:1000; detected with Goat antirabbit Alexa 568, Invitrogen 1:250) and counterstained with phalloidin (Invitrogen, 25 μg/mL). For FHC shRNA experiments neurons were identified and analyzed using incorporated GFP expression. Images were acquired with a Zeiss LSM5 laser scanning confocal microscope, using a 63× objective. Dendritic spines were defined as phalloidin- or GFP-positive protrusions clearly connected to the dendrite by a thin shaft. For each neuron 3-4 segments totaling at least […] in length were added to measure spine density, and each neuron was represented as a single data point. Each experiment included 3-4 coverslips from each of 2 or more separate preparations. For in vivo experiments, dendritic spines were visualized using a Golgi stain kit, following instructions from the manufacturer (FD NeuroTechnologies). Brains were rapidly removed, rinsed in H2O, and incubated in the Golgi stain for 2 weeks. The tissue was then cryoprotected in sucrose at 4° C. for 7 days, and frozen in isopentane. Brains were sectioned by cryostat at a thickness of 180 μm, and mounted on gelatin-coated microscope slides. Sections were allowed to dry overnight, and a signal intensification step performed before dehydrating, clearing in xylene, and coversliping with Permount (Fisher Scientific). Spine analysis was performed using Neurolucida software equipped with a 100× objective (FIG. 7A). Pyramidal neurons in layer 2-3 of prefrontal cortex were identified and reconstructed in their entirety, and total spine density for each neuron was reported as a single data point. 3 neurons were analyzed from each brain, and 4-5 brains used for each experimental group.

[4] = test system: FHC; test: FHC transcript levels in neurons; type: cell-based, rat; settings: neurons in the absence of glia
[5] = test system: FHC; test: Neuronal FHC protein levels by Western blot in cultured cortical neurons; type: cell-based, rat; settings: for FHC protein levels: neurons in the absence of glia, 0.5 to 30 ng/mL, vs vehicle
Description: as §1
(§2) Protease and phosphatases inhibitors were added to both buffers.
Rat cortical neurons were cultured in serum-free media in the presence of a glial feeder layer (Shimizu, et al., 2011, J. Vis. Exp. 57). This culture system largely preserves the in vivo environment, due to the presence of glia; however, it still enables direct investigation of neurons that can be separated by the glia before experiments. Selected studies were also performed in neurons grown in the absence of glia for the entire culture period, as indicated (Sengupta, et al., 2009, J. Neurosci. 29(8):2534-44). All experiments were conducted between 8-13 days in vitro (DIV).
Total protein extracts were obtained using standard protocols. […] The following antibodies were used: anti-FHC (3998, Cell Signaling Technology, 1:1,000) and anti-β-actin (A2066, Sigma-Aldrich, 1:5,000).

[6] = test system: CXCR4; test: Multispectral imaging of total CXCR4 optical density within MAP2+ neurons, non-human primate; type: in vivo, rhesus macaque; settings: morphine treated macaques; frontal cortex
[7] = test system: pCXCR4-Ser339; test: Multispectral imaging of pCXCR4 optical density within MAP2+ neurons, non-human primate; type: in vivo, rhesus macaque; settings: morphine treated macaques; frontal cortex
[8] = test system: FHC; test: Multispectral imaging of FHC optical density within MAP2+ neurons, non-human primate; type: in vivo, rhesus macaque; settings: morphine 3 then 5 mg/kg 3 times daily, 90-110 days; frontal cortex
[9] = test system: HDAC4; test: Nuclear HDAC4 levels by immunocytochemistry and western blot; type: cell-based, rat; settings: pure neuronal culture; CXCL12 20 nM, 30 min
Description: as §2
Neurons were fixed in 4% paraformaldehyde, and stained with MAP2 (Millipore, 1:1000) and HDAC4 (Epigentek, 1:150), detected with cy2- and cy3-conjugated secondary antibodies. Cell nuclei were visualized with Hoechst (Invitrogen, 1:2000), and images were acquired with a Zeiss LSM5 laser scanning confocal microscope (Imager.Z1m), mounting 10, 20, 40, and 63× objectives.

[10] = test system: HOS cells; test: Calcein assay (labile iron pool); type: cell-based, human; settings: DFO 100 µM, six hours; empty vector HOS cells
Description: HOS cells transfected with either empty vector (EV), wild type FHC (WT-FHC) or FHC 222 mutant (Mut-FHC) were plated in 96-well plates at 20,000 cells per well. After 24 hours of serum starvation, vehicle or the iron chelator DFO ([…]) were added, respectively, to the untreated EV wells (Control) and to the positive control wells (DFO). Six hours later all cells were washed with PBS, and loaded with the iron-binding dye calcein (200 μg/mL) for 20 minutes. Cells were then washed again in PBS, and calcein fluorescence measured (excitation 485 nm, emission 535 nm), as a measure of the labile iron pool.
Human osteosarcoma cells expressing high levels of CXCR4 (HOS-X4) were transfected with either of these FHC plasmids and selected to generate stable cell lines. First, in order to confirm the differential effects of these proteins on iron sequestration, free intracellular iron levels were compared using the fluorescent probe calcein. Calcein is delivered as a calcein-AM ester, which passes across the plasma membrane into cells and is cleaved by cytosolic esterases to produce membrane-impermeable calcein. The fluorescence of this trapped calcein is quenched following chelation with labile iron, and therefore the degree of quenching is a commonly used estimation of free intracellular iron levels.

[11] = AMD3100 1 μg ICV, 6 hours, CXCL12 20 nM, 3 hours slice incubation
[12] = held at −70 mV, picrotoxin, AMD3100 ICV or CXCL12 20 nM 3 hrs

c1cc(CN2CCCNCCNCCCNCC2)ccc1CN1CCCNCCNCCCNCC1 [AMD3100, 1,1′-[1,4-phenylenebis (methylene)]bis[1,4,8,11-tetraazacyclotetradecane], reference compound]
dendritic spine density ([1]; osmotic pump into left lateral ventricle, 0.75 μg/hour for 4 days): similarly able to decrease dendritic spine densities
dendritic spine density ([1]; single 1 μg ICV injection, 3-week-old rats, 6 hours post-injection): significantly decreased spine densities
20-80% rise time [2]: 0.31 ± 0.02 ms
after hyperpolarization [2]: −12.8 ± 1.5 mV
mEPSC amplitude [2]: 16.55±0.55 pA
mEPSC frequency [2]: 2.27±0.33 Hz
peak spike amplitude [2]: 72.6 ± 5.3 mV
resting membrane potential [2]: −76.9 ± 2.3 mV
spike half-width [2]: 1.3 ± 0.12 ms
spike number generation in response to varying step currents [2]: no drug effect on spike number generation
spike threshold [2]: −38.4 ± 3.0 mV
input resistance [2, 11]: 138.3 ± 9.5 M′Ω
sEPSC amplitude [2, 12]: 16.79±0.80 pA
sEPSC frequency [2, 12]: 3.84±0.65 Hz
effect on CXCL12-induced increase of spine density [3]: blocked

TNF-α
FHC transcript levels [4]: increased
FHC protein levels [5]: significant increase of FHC protein levels

CN1CC[C@]23c4c5ccc(O)c4O[C@H]2[C@@H](O)C=C[C@H]3[C@H]1C5 [morphine]
total neuronal CXCR4 levels [6]: unchanged
FHC levels ([5]; cultured rat cortical neurons, morphine 1 μm, 24 hours): significantly increases FHC levels
ability of morphine to regulate spines in FHC-deficient neurons ([3]; FHC-specific shRNA vs scrambled): blocked
number of dendritic spines ([3]; morphine 1 μm, 24 hours, 21 days culture): significant decrease in the number of dendritic spines
neuronal pCXCR4 levels [7]: significant reduction in pCXCR4 levels
neuronal FHC (OD within MAP2+ neurons) [8]: significantly elevated

IL-1β: Recombinant IL-1β, proinflammatory cytokine, R&D Systems
FHC transcript levels [4]: did not affect levels of FHC mRNA
FHC protein levels [5]: significant increase of FHC protein levels

pertussis toxin
effect on CXCL12-induced increase of spine density [3]: blocked

CXCL12: recombinant chemokine CXCL12 from Peprotech, endogenous CXCR4 ligand
mEPSC amplitude [2]: 25.25±1.02 pA
mEPSC frequency [2]: 1.43±0.25 Hz
resting membrane potential [2]: −76.1 ± 2.3 mV
sEPSC amplitude [2]: 25.32±0.43 pA
sEPSC frequency [2]: 1.85±0.41 Hz
20-80% rise time [2, 11]: 0.29 ± 0.01 ms
after hyperpolarization [2, 11]: −12.0 ± 0.9 mV
input resistance [2, 11]: 121.8 ± 13.2 M′Ω
peak spike amplitude [2, 11]: 74.0 ± 2.8 mV
spike half-width [2, 11]: 1.2 ± 0.07 ms
spike threshold [2, 11]: −42.9 ± 2.3 mV
spike number generation in response to varying step currents ([2]; current clamp, AMD3100 ICV or CXCL12 ex vivo vs vehicle): no drug effect on spike number generation
dendritic spine density ([3]; 21 days culture with glial feeder layer, CXCL12 20 nM, 3 hours): moderate but significant increase in spine density
effects of CXCL12 on spine density in HDAC4-deficient neurons ([3]; HDAC4-specific siRNA, pure neuronal population): completely prevented
dendritic spines ([3]; pure neuronal population, 21 days, 20 nM CXCL12, multiple time points): time-dependent increase in dendritic spines
nuclear HDAC4 levels [9]: increased nuclear HDAC4 levels

CC(=O)N(O)CCCCCNC(=O)CCC(=O)N(O)CCCCCNC(=O)CCC(=O)N(O)CCCCCN [DFO, desferrioxamine]
calcein fluorescence [10]: increased
